Columns and labels:
[1] = Oral glucose tolerance test in lean and obese Zucker rats; assay type: in vivo
Description: Drug treatment—Drug treatment was commenced when the animals were 6 weeks of age. […] Animals were weighed regularly to allow accurate dosing with drugs, and to follow the progress of weight gain. Food intake for each cage of 4 animals was measured daily. After two weeks of treatment animals underwent an oral glucose tolerance test, which consisted of an overnight fast, followed by an oral glucose load of 2 g/kg body weight at 0900 h. Blood samples were taken by tail-nick at 0, 30 and 120 min after the glucose bolus. […] Glucose concentrations were determined using a hexokinase glucose assay kit (Sigma, Poole, UK), for which the inter- and intra-assay coefficients of variation were both <2%.

5β-reductase [2] = target: T1, 5β-reductase (Rattus norvegicus, UniProt P31210); assay: Hepatic 5β-reductase activity in liver cytosol after carbenoxolone administration; assay type: in vivo, Zucker rats; settings: obese animals
T1 construct: conversion of [^3H]-corticosterone to [^3H]-5β-tetrahydrocorticosterone in liver cytosol preparations; from tissue; host or cells: Zucker rat liver cytosol
T1 sequence (P31210 1-326): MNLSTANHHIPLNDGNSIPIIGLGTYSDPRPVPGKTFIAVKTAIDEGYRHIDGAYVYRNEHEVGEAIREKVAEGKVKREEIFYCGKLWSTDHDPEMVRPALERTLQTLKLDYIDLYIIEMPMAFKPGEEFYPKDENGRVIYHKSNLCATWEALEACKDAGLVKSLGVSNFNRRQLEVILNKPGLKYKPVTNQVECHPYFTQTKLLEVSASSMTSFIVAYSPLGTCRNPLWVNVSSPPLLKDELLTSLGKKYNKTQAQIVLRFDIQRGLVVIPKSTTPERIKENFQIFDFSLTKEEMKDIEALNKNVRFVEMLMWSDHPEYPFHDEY
Description: (§1) Drug treatment—Drug treatment was commenced when the animals were 6 weeks of age. […] Animals were weighed regularly to allow accurate dosing with drugs, and to follow the progress of weight gain. Food intake for each cage of 4 animals was measured daily. After two weeks of treatment animals underwent an oral glucose tolerance test, which consisted of an overnight fast, followed by an oral glucose load of 2 g/kg body weight at 0900 h. Blood samples were taken by tail-nick at 0, 30 and 120 min after the glucose bolus.
5β-Reductase activity in the liver was assessed by the conversion of [^3H]-corticosterone to [^3H]-5β-tetrahydrocorticosterone in liver cytosol preparations. The sub-cellular localisation and cofactor preference of 11β-HSD1 and 5β-reductase differ such that the enzyme activities can be measured independently of one another. Liver cytosol was prepared by repeated centrifugation according to the method of (Fleischer & Kervina 1974). Enzyme activity was measured by incubating cytosol (100 μg protein/ml) in duplicate at 37° C., in phosphate buffer (40 mM Na2PO4, 320 mM sucrose, 1 mM dithiothreitol, pH 7.5) containing NADPH (1 mM) and [^3H]-corticosterone (150 nM). […] Steroids were separated by HPLC using a reverse phase C8 column at 10° C., and quantified by on-line liquid scintillation counting. […]

[3] = Hypothalamic pituitary adrenal axis: adrenal weight and plasma corticosterone in Zucker rats; assay type: in vivo
Description: as §1, with “bolus. […] Plasma assays—Corticosterone levels were measured in plasma prepared from terminal blood samples collected at 0900-1100 h using an in-house radioimmunoassay (74). The inter- and intra-assay coefficients of variation were<10%.” for “bolus.”

[4] = Carbenoxolone randomised double-blind crossover study, fasting plasma lipids; settings: men with type 2 diabetes mellitus and healthy controls, vs placebo
Description: Fasting levels of plasma lipids are shown.

11β-HSD1 [5] = target: T2, 11β-HSD1 (Homo sapiens, UniProt P28845); settings: humans; cited from earlier work
T2 construct: host or cells: human subjects in vivo
T2 sequence (P28845 whole entry): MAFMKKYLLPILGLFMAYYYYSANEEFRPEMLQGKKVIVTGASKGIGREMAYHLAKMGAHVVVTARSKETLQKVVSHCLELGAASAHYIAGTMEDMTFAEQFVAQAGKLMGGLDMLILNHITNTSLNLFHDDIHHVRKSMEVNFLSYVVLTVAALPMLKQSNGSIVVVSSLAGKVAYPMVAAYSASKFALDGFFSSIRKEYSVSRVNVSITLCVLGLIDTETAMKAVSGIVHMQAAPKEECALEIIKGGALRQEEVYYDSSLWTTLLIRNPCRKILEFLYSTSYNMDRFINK

[6] = Non-fasting plasma lipid levels in lean and obese Zucker rats; assay type: in vivo
Description: as §1, with “bolus. […] Lipid levels were measured in plasma prepared from terminal blood samples collected at 0900-1100 h. Triglycerides, total cholesterol and HDL cholesterol were measured using […] (TG, CHOL and HDL C-plus respectively) from Roche Diagnostics, Mannheim, Germany. Non-esterified fatty acids (NEFAs) were measured using the Wako NEFA C enzymatic assay (Alpha Laboratories Ltd, Hampshire, UK).” for “bolus.”

[7] = Food intake and body weight in lean and obese Zucker rats treated with carbenoxolone; assay type: in vivo; settings: lean or obese animals; 50 mg/kg by gavage daily, three weeks
Description: as §1, with “Groups of eight 5-week-old male obese and lean Zucker rats (Harlan Orlac, Bicester, UK) were characterised by phenotype; maintained under controlled conditions of light (on 0800 h-2000 h) and temperature (21° C.) and allowed free access to standard rat chow. (Special Diet Services, Witham, UK) and drinking water. Drug treatment—Drug” for “Drug treatment—Drug”

11β-HSD1 [8] = target: T3, 11β-HSD1 (Rattus norvegicus, UniProt P16232); assay: 11β-HSD1 activity in tissue homogenates after carbenoxolone administration; design: from tissue; host or cells: Zucker rat liver, quadriceps skeletal muscle, subcutaneous lumbar fat, omental fat homogenates; species or system Zucker rats; settings: ex vivo, liver; lean and obese animals
T3 sequence (P16232 whole entry): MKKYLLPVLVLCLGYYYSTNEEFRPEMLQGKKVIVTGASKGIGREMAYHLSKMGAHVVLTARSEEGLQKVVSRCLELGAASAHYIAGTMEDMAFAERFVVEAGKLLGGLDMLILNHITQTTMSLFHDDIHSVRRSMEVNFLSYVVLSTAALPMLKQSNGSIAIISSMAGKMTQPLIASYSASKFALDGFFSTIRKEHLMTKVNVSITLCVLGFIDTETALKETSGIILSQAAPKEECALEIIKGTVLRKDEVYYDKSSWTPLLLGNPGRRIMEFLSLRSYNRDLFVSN
Description: as §1
Measurement of enzyme activities in vitro—11β-HSD1 activity was measured in homogenates of tissues by incubating in duplicate at 37° C., in Krebs Ringer buffer containing glucose (0.2%), NADP (2 mM) and 1,2,6,7-[^3H]4-corticosterone (100 nM). Conditions were optimised for each tissue to ensure first order kinetics, by adjusting protein concentrations as follows: 10 μg/ml for liver; 1.5 mg/ml for quadriceps skeletal muscle; 0.5 mg/ml for subcutaneous lumbar fat and 1 mg/ml for omental fat. […] Steroids were separated by HPLC using a reverse phase μ-Bondapak C18 column at 20° C. and quantified by on-line liquid scintillation counting. No peaks other than ^3H-corticosterone and ^3H-11-dehydrocorticosterone were detected under these conditions.

5β-reductase [9] = target: T4, 5β-reductase (Homo sapiens, UniProt P51857); settings: reported (70); cited from earlier work
T4 sequence (P51857 1-326): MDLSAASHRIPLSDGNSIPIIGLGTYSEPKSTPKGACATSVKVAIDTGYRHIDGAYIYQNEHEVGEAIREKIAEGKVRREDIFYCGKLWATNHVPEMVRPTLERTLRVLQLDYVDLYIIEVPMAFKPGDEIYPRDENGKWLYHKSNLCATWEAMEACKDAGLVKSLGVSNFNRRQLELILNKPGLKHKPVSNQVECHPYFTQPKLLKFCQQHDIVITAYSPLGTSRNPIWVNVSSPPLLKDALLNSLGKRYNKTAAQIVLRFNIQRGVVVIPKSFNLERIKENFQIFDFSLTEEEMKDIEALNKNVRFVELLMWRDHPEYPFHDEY

[10] = system: glucocorticoid receptor-mediated response in human skin; assay: Skin blanching after topical application to forearm skin; assay type: in vivo; settings: applied together with beclomethasone, 12 healthy humans
Description: The intensity of skin blanching was recorded the following day by two observers who were blind to the order of application of steroid solutions, as described (80).

11β-HSD1 [11] = target: T3, 11β-HSD1; assay: Incubation of beclomethasone with homogenised rat liver; assay type: in vitro ADME; design: incubation of beclomethasone with homogenised rat liver; from tissue; host or cells: homogenised rat liver; settings: HPLC, UV 254 nm
[12] = non-fasting plasma, obese animals

Question: With CC1(C)[C@@H](OC(=O)CCC(=O)O)CC[C@]2(C)[C@H]3C(=O)C=C4[C@@H]5C[C@@](C)(C(=O)O)CC[C@]5(C)CC[C@@]4(C)[C@]3(C)CC[C@@H]12 [Carbenoxolone] as the compound, how does the plasma insulin ([1]; 30 min after glucose, both lean and obese animals) read?
Answer: increased

Question: What about the plasma insulin ([1]; 120 min after glucose, obese animals) of the same compound?
Answer: increased

Question: And the glucose tolerance ([1]; Zucker rats)?
Answer: no effect

Question: What about the plasma insulin ([1]; fasting state, both lean and obese animals) of the same compound?
Answer: increased

Question: And the plasma glucose ([1]; lean and obese, fasting and after oral glucose load, two weeks of treatment)?
Answer: no significant effect

Question: And the “hepatic 5β-reductase activity (conversion of corticosterone to 5β-tetrahydrocorticosterone)” value (5β-reductase [2])?
Answer: exacerbated the increase

Question: And the plasma corticosterone levels ([3]; lean and obese, terminal blood, trend for carbenoxolone to increase)?
Answer: no statistically significant differences

Question: And the adrenal weight ([3]; lean animals)?
Answer: no effect

Question: And the “adrenal weight (adrenal hypertrophy)” value ([3]; obese rats)?
Answer: ameliorated

Question: What about the “HDL (high density lipoprotein) cholesterol concentrations” value [4] of the same compound?
Answer: raised

Question: What about the total cholesterol [4] of the same compound?
Answer: did not affect

Question: And the triglyceride concentrations [4]?
Answer: lowered

Question: What about the “amount of glucose required to maintain normoglycemia” value (11β-HSD1 [5]) of the same compound?
Answer: increases

Question: What about the forearm glucose uptake (11β-HSD1 [5]) of the same compound?
Answer: without altering

Question: What about the “non-fasting plasma NEFAs” value ([6]; all groups, lean and obese) of the same compound?
Answer: not different

Question: What about the total cholesterol ([6]; non-fasting plasma, lean and obese rats, three weeks of treatment) of the same compound?
Answer: not affected

Question: And the HDL cholesterol [6, 12]?
Answer: increased

Question: What about the triglycerides [6, 12] of the same compound?
Answer: reduced

Question: What about the body weight [7] of the same compound?
Answer: no effect

Question: And the food intake [7]?
Answer: no effect

Question: And the “hepatic 11β-HSD1 activity (conversion of corticosterone to 11-dehydrocorticosterone)” value (11β-HSD1 [8])?
Answer: inhibition

Question: For CC1(C)[C@@H](O)CC[C@]2(C)[C@H]3C(=O)C=C4[C@@H]5C[C@@](C)(C(=O)O)CC[C@]5(C)CC[C@@]4(C)[C@]3(C)CC[C@@H]12 [Glycyrrhetinic acid], which “inhibition of 5β-reductase” value (5β-reductase [9]) is on record?
Answer: inhibit

Question: What about the “blanching response to beclomethasone (area under the dose-response curve)” value [10] of the same compound?
Answer: reduced

Question: For C[C@H]1C[C@H]2[C@@H]3CCC4=CC(=O)C=C[C@]4(C)[C@@]3(Cl)[C@@H](O)C[C@]2(C)[C@@]1(O)C(=O)CO [beclomethasone], which “conversion of beclomethasone to 11-dehydrobeclomethasone” value (11β-HSD1 [11]) is on record?
Answer: substrate

Source: US20050032761A1, “Lipid profile modulation” (priority 2001, published 2005)
